Results reported in ChEMBL document CHEMBL4041477, “Design, synthesis and biological evaluation of novel 2,3-dihydroquinazolin- 4(1H)-one derivatives as potential fXa inhibitors” (Eur J Med Chem, 2017).

Tests used:
Coagulation factor X = Coagulation factor X (Homo sapiens, UniProt P00742); assay: Inhibition of human factor 10a using substrate S-2765 preincubated for 30 mins followed by substrate addition measured after 20 mins by micro plate reader method
Prothrombin = Prothrombin (Homo sapiens, UniProt P00734); assay: Inhibition of human thrombin using substrate S-2238 preincubated for 30 mins followed by substrate addition measured after 20 mins by micro plate reader method
Plasma [1] = assay: Anticoagulant activity in rabbit plasma assessed as increase in prothrombin time after 10 mins by coagulometer; type: functional, Oryctolagus cuniculus
Plasma [2] = assay: Anticoagulant activity in rabbit plasma assessed as increase in activated partial thromboplastin time after 10 mins by coagulometer; type: functional, Oryctolagus cuniculus
Rattus norvegicus [3] = assay: Antithrombotic activity in po dosed rat model of arteriovenous shunt assessed as reduction in thrombus weight administered 60 mins prior to shunt opening; type: functional, organism-based
Rattus norvegicus [4] = assay: Toxicity in po dosed rat assessed as increase in tail bleeding time administered 60 mins prior to tail transection measured over 30 mins; type: organism-based; conditions: in vivo, 0.5 h
Rattus norvegicus [5] = assay: Antithrombotic activity in rat model of arteriovenous shunt assessed as reduction in thrombus weight at 10 mg/kg, po administered 60 mins prior to shunt opening; type: functional, organism-based

Coagulation factor X, sequence (P00742 41-179 limits assumed): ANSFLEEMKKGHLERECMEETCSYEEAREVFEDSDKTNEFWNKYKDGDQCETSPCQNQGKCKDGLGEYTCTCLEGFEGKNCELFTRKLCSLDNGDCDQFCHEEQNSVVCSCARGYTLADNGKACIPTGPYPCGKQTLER
Coagulation factor X, sequence (P00742 235-488 limits assumed): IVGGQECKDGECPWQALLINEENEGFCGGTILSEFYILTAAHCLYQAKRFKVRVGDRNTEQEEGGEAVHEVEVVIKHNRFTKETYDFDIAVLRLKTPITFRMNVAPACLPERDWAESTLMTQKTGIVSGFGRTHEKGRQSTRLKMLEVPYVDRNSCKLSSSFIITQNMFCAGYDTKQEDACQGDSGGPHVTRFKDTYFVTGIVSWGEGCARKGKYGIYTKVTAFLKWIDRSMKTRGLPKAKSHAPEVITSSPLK

IC50 (Coagulation factor X) [µM] | SMILES | other results
0.165 | COc1ccc2c(c1)C(=O)N(c1ccc(-n3ccccc3=O)cc1)CN2C(=O)Cc1ccc(Cl)cc1 | –
354 | COc1cccc(C(=O)N2CN(c3ccc(N4CCCCC4=O)cc3)C(=O)c3cc(OC)ccc32)c1 | –
0.717 | COc1ccc(CC(=O)N2CN(c3ccc(N4CCOCC4=O)cc3)C(=O)c3cc(OC)ccc32)cc1 | –
1.41 | COc1ccc2c(c1)C(=O)N(c1ccc(N3CCOCC3=O)cc1)CN2C(=O)c1ccc(CCl)cc1 | –
0.345 | COc1ccc2c(c1)C(=O)N(c1ccc(N3CCOCC3=O)cc1)CN2C(=O)Cc1ccc(Cl)c(Cl)c1 | –
52 | COc1ccc2c(c1)C(=O)N(c1ccc(N3CCCCC3=O)cc1)CN2C(=O)c1ccc(Cl)cc1 | –
0.157 | COc1ccc2c(c1)C(=O)N(c1ccc(N3CCOCC3=O)cc1)CN2C(=O)Cc1ccc(Cl)cn1 | –
4.06 | COc1ccc2c(c1)C(=O)N(c1ccc(N3CCCCC3=O)cc1)CN2C(=O)Cc1ccccc1 | –
243 | COc1ccc2c(c1)C(=O)N(c1ccc(N3CCCCC3=O)cc1)CN2C(=O)c1cccc(Cl)c1 | –
0.234 | COc1ccc2c(c1)C(=O)N(c1ccc(N3CCCCC3=O)cc1)CN2C(=O)Cc1ccc(NC(C)=O)cc1 | –
0.498 | COc1ccc2c(c1)C(=O)N(c1ccc(N3CCOCC3=O)cc1)CN2C(=O)Cc1ccc(Cl)cc1Cl | –
0.887 | COc1ccc(CC(=O)N2CN(c3ccc(N4CCCCC4=O)cc3)C(=O)c3cc(OC)ccc32)cc1 | –

Continued, molecule first:

SMILES | IC50 (Coagulation factor X) [µM] | other results
COc1ccc2c(c1)C(=O)N(c1ccc(N3CCCCC3=O)cc1)CN2C(=O)Cc1ccc(Cl)cc1 | 0.127 | –
COc1ccc2c(c1)C(=O)N(c1ccc(N3CCCCC3=O)cc1)CN2C(=O)c1ccc(Cl)s1 | 179 | –
COc1ccc2c(c1)C(=O)N(c1ccc(N3CCOCC3=O)cc1)CN2C(=O)Cc1ccc(Cl)s1 | 0.021 | IC50 (Prothrombin): 67 µM; 2PT (Plasma [1]): 1.2 µM; 2aPTT (Plasma [2]): 0.6 µM; Activity (Rattus norvegicus [3]): Dose-dependent effect; Activity (Rattus norvegicus [4]): Dose-dependent effect
COc1ccc(C(=O)N2CN(c3ccc(N4CCCCC4=O)cc3)C(=O)c3cc(OC)ccc32)cc1 | 113 | –
COc1ccc2c(c1)C(=O)N(c1ccc(N3CCOCC3=O)cc1)CN2C(=O)Cc1ccc(Cl)cc1 | 0.042 | IC50 (Prothrombin): 81 µM; 2PT (Plasma [1]): 11.6 µM; 2aPTT (Plasma [2]): 16.1 µM
COc1ccc(NC(=O)c2ccc(C(=N)N(C)C)cc2)c(C(=O)Nc2ccc(Cl)cn2)c1 [BETRIXABAN] | – | 2PT (Plasma [1]): 2.4 µM; 2aPTT (Plasma [2]): 1.1 µM; Activity (Rattus norvegicus [4]): Dose-dependent effect; Activity (Rattus norvegicus [5]): Dose-dependent effect
COc1ccc2c(c1)C(=O)N(c1ccc(N3CCCCC3=O)cc1)CN2C(=O)Cc1cccc(Cl)c1 | 0.532 | –
COc1ccc(CC(=O)N2CN(c3ccc(N4CCCCC4=O)cc3)C(=O)c3cc(OC)ccc32)c(OC)c1 | 1.27 | –
COc1ccc2c(c1)C(=O)N(c1ccc(N3CCOCC3=O)cc1)CN2C(=O)CCc1ccc(Cl)cc1 | 2.21 | –
COc1ccc2c(c1)C(=O)N(c1ccc(N3CCCCC3=O)cc1)CN2C(=O)c1ccccc1 | 546 | –
COc1ccc2c(c1)C(=O)N(c1ccc(N3CCCCC3=O)cc1)CN2C(=O)Cc1ccccc1Cl | 1.34 | –
